Source: paper PMC3908613 (Bioscience Reports, 2014)

Tests used:
BMDC [1] = assay: Cytokine production by LPS-stimulated BMDC (ELISA); type: cell-based, C57BL/6 mice; settings: LPS 50 ng/ml, 18 h; for production of TNFα, IL6 and IL10: in the presence of both PD184352 (2 μM) and BIRB0796 (0.1 μM)
Procedure: DCs were generated from the bone marrow or the spleen of C57BL/6 mice as previously described. Briefly, bone marrow cells were cultured for 7 days at 37°C, 5% (v/v) CO2 in complete RPMI medium supplemented with 10 ng/ml recombinant granulocyte-macrophage colony-stimulating factor (GM-CSF; Peprotech). Spleen cells were cultured for 14 days at 37°C, 5% CO2 in complete RPMI containing 10 ng/ml GM-CSF and 1 ng/ml TGFβ (transforming growth factor-β; R&D Systems). NIH3T3 cells (European Cell Culture Collection) were cultured in DMEM (Dulbecco's modified Eagle's medium) supplemented with glutamine, penicillin, streptomycin and 10% (v/v) calf serum (Invitrogen). […] The amounts of TNFα (tumour necrosis factor α), IL6 (interleukin 6) and IL10 in the supernatant were measured using ELISA kits specific for each cytokine (TNFα, IL6; Peprotech, IL10; R&D Systems).

BMDC [2] = assay: FITC-dextran uptake (macropinocytosis) by BMDC; type: cell-based, C57BL/6 mice; settings: LPS 50 ng/ml, FITC-dextran 1 mg/ml, increasing concentrations
Procedure: DCs were generated from the bone marrow or the spleen of C57BL/6 mice as previously described. Briefly, bone marrow cells were cultured for 7 days at 37°C, 5% (v/v) CO2 in complete RPMI medium supplemented with 10 ng/ml recombinant granulocyte–macrophage colony-stimulating factor (GM-CSF; Peprotech). Spleen cells were cultured for 14 days at 37°C, 5% CO2 in complete RPMI containing 10 ng/ml GM-CSF and 1 ng/ml TGFβ (transforming growth factor-β; R&D Systems). NIH3T3 cells (European Cell Culture Collection) were cultured in DMEM (Dulbecco's modified Eagle's medium) supplemented with glutamine, penicillin, streptomycin and 10% (v/v) calf serum (Invitrogen).
FITC-dextran uptake was measured as described. […] In some experiments, cells were pre-treated with 1 μM Akt-i (Merck) for 30 min. Cells were left unstimulated or were stimulated with 50 ng/ml LPS for 20 min at 37°C followed by the addition of 1 mg/ml FITC dextran (Invitrogen) for 10 min at 37°C. Cells were washed four times at 4°C in PBS supplemented with 2% (v/v) FCS (foetal calf serum) and then stained with APC (allophycocyanin)-labelled anti-CD11c antibody (BD biosciences). FITC dextran uptake was measured on an FACS Calibur (BD biosciences).

[3] = system: panel of more than 200 kinases; parameters: method as in PMID 22056746; settings: cited from earlier work
Erk1/2 = target: T1, Erk1/2 (Mus musculus, UniProt P63085); assay: Desthiobiotin-ATP probe capture on streptavidin beads, Western blot; type: binding, C57BL/6 mice; settings: 10 μM inhibitor, DC lysate
T1 construct: recovered on streptavidin beads following desthiobiotin-ATP labelling of DC lysates including Rsk2, Erk1/2 and p38; endogenous in cells; host or cells: mouse spleen-derived dendritic cells (SDC), lysate
T1 sequence (P63085 2-358): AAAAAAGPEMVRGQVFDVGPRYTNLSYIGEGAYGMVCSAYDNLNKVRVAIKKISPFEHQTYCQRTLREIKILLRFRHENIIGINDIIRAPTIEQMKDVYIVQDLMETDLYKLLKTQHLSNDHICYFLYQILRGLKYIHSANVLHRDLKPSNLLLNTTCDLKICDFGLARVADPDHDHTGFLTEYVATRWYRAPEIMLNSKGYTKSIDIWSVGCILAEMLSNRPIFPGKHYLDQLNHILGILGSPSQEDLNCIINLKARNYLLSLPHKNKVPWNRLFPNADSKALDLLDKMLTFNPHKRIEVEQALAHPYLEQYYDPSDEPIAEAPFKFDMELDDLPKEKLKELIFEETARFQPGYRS
Procedure: (§1) SDC were cultured for at least 14 days in RPMI (without arginine and lysine, custom-made by Biosera) containing 10% dialysed FCS (Hyclone) supplemented with 84 mg/l of L-arginine (Sigma) and 40 mg/l L-lysine (Sigma) for the 'light' medium or 84 mg/l of […] or ^13C10 and 40 mg/l […] (Cambridge Isotope Laboratory) for the 'heavy' medium. Equal numbers (2×10^7) of 'light' or 'heavy' labelled SDCs were incubated in RPMI containing 0.5% FCS for 3 h in 15 cm dishes. The cells were lysed in the lysis buffer provided in the kit (Pierce). […] Labelling with the desthiobiotin ATP probe, and precipitation with streptavidin beads were performed according to the manufacturer's instructions (Pierce kinase enrichment kit or ActivXTM).

p38 = assay: as above; type: binding, C57BL/6 mice; settings: 10 μM inhibitor, DC lysate
Procedure: as §1

PLK1 = target: T2, PLK1 (Mus musculus, UniProt Q07832); assay: as above; type: binding, C57BL/6 mice; settings: 10 μM inhibitor, DC lysate
T2 construct: endogenous in cells; host or cells: mouse spleen-derived dendritic cells (SDC), lysate
T2 sequence (Q07832 whole entry): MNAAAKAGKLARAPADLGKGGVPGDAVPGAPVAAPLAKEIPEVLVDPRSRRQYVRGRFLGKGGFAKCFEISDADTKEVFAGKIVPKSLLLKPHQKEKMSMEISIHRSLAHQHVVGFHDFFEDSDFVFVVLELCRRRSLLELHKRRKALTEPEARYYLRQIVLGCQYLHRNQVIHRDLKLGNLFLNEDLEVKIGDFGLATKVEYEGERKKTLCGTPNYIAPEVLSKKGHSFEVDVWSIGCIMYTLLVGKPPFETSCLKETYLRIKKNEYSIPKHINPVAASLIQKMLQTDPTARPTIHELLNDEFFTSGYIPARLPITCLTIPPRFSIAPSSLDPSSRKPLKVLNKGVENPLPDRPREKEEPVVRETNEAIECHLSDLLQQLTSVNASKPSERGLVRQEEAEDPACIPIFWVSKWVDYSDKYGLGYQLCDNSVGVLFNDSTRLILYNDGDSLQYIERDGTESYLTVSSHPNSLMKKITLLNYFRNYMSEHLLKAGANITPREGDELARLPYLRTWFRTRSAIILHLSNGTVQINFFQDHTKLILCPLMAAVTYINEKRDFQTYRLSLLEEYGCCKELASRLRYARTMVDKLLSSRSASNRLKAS
Procedure: SDC were cultured for at least 14 days in RPMI (without arginine and lysine, custom-made by Biosera) containing 10% dialysed FCS (Hyclone) supplemented with 84 mg/l of L-arginine (Sigma) and 40 mg/l L-lysine (Sigma) for the ‘light’ medium or 84 mg/l of L-arginine ^13C6 or ^13C10 and 40 mg/l L-lysine ^13C6 (Cambridge Isotope Laboratory) for the ‘heavy’ medium. Equal numbers (2×10^7) of ‘light’ or ‘heavy’ labelled SDCs were incubated in RPMI containing 0.5% FCS for 3 h in 15 cm dishes. The cells were lysed in the lysis buffer provided in the kit (Pierce). […] Labelling with the desthiobiotin ATP probe, and precipitation with streptavidin beads were performed according to the manufacturer's instructions (Pierce kinase enrichment kit or ActivX™). Equal amount of streptavidin precipitates were separated by electrophoresis as described above and probed with antibodies against Rsk2, Lok (Bethyl), Slk (Bethyl), PLK1 (Calbiochem), p38, Erk2 and Mst1 (from Cell Signaling).

RSK = system: RSK; parameters: method as in PMID 22056746; settings: read-out: in vitro IC50 RSK; cited from earlier work
DC = assay: Actin cytoskeleton organisation in DC (confocal microscopy); type: cell-based, C57BL/6 mice; settings: 4 μM D1870 or 2 μM BIX, 1h30 at 37°C
Procedure: 2 μMBIXfor1h30at37◦ C. Cells were ﬁxed in 4 % (v/v) paraformalde-hyde for 15 min, permeabilized with 0.1 % Triton for 5 min and stained with phalloidin-Alexa 555 (Invitrogen) and anti-vinculin antibody (Sigma) followed by goat anti-mouse Alexa 488 antibody (invitrogen). Cells were analysed on a Zeiss700 confocal microscope. V inculin (green) and phal-loidin (red). Error bar 10 μm. Images are representative of three inde- […]
© 2014 The Author(s) This is an Open Access ar ticle distributed under the terms of the Creative Commons Attribution Licence (CC-BY) (http://creativecommons.org/licenses/by/3.0/)c which permits unrestricted use, distribution and reproduction in any medium, provided the original work is properly cited.
(1 picture or pasted object on this page, not shown here)

BMDC [4] = assay: Immunoblot of phosphorylated signalling proteins in stimulated BMDC; type: cell-based, C57BL/6 mice; settings: 30 min
Procedure: BMDC (1.5×10^6 cells) were incubated in 6-well plates in RPMI supplemented with 0.3% FCS for 5 h at 37°C. […] NIH3T3 cells (2×10^4) were plated in 6-well plates for 48 h at 37°C. The cells were deprived of serum for 8 h in DMEM supplemented with 2 mg/ml BSA (Sigma) and then stimulated with 100 ng/ml EGF (epidermal growth factor; Peprotech) for 5 min at 37°C.
Cells were washed in cold PBS, lysed on ice for 10 min in lysis buffer (1% Triton X-100 containing 50 mM Tris–HCl (pH 7.5), 150 mM NaCl, 1 mM EGTA, 1 mM EDTA, 10 mM NaF, 1 mM sodium orthovanadate and 5 mM sodium pyrophosphate and protease inhibitors (Roche)) and centrifuged for 10 min at 20000 g at 4°C.
BMDC (5×10^6 cells) were stimulated as described above. Lysates were pre-cleared with protein G Sepharose beads (Roche) for 30 min at 4°C. Paxillin was immunoprecipitated with 2 μg of anti-paxillin (Millipore) or with anti-IgG antibodies (Santa Cruz Biotechnology) for 1 h at 4°C and then incubated with 15 μl protein G Sepharose beads for 1 h at 4°C. Beads were washed four times with lysis buffer and paxillin was eluted with NuPage sample buffer (Invitrogen). The immunoprecipitated proteins were separated by electrophoresis on a 10% (w/v) NuPage gel and transferred onto a nitrocellulose membrane. The membrane was probed with anti-phospho Ser250-paxilin (kind gift of Luc Sabourin, McMaster University, Canada) or anti-paxillin antibodies.

[5] = increasing concentrations of inhibitor

Cc1ccc(-n2nc(C(C)(C)C)cc2NC(=O)Nc2ccc(OCCN3CCOCC3)c3ccccc23)cc1 [BIRB0796]
production of TNFα, IL6 and IL10 (BMDC [1]): blocked

C[C@@H]1CCNC(=O)c2cc3ccc(C(=O)Nc4nc5ccccc5n4CCCN(C)C)cc3n21 [BIX, BIX02565]
Block of TLR stimulated macropinocytosis (BMDC [2]): ~ 20% | Higher levels of BIX at which a few other kinases were affected [3]: ~ 20 fold | capture of Erk1/2 on streptavidin beads (Erk1/2): not Erk1/2 or p38, was blocked | capture of p38 on streptavidin beads (p38): not Erk1/2 or p38, was blocked | Recovery of PLK1 on streptavidin beads (PLK1): not affected | IC50 (RSK): 1 to 2 nM | morphological changes in resting DC (cell spreading, focal adhesion, loss of podosomes) (DC): not observed | Erk1/2, p38 or JNK1/2 phosphorylation (BMDC [4]; LPS 50 ng/ml): Neither inhibitor had any effect | GSK3α/β phosphorylation (BMDC [4]; LPS 50 ng/ml): blocked | PKB phosphorylation at Ser473 and Thr308 (BMDC [4]; LPS 50 ng/ml): increased | Phosphorylation of MSK1 and MK2 (BMDC [4]; LPS 50 ng/ml): not affected | phosphorylation of IκBα (BMDC [4]; LPS 50 ng/ml): neither D1870 nor BIX affected | phosphorylation of paxillin on Ser250 (BMDC [4]; LPS, paxillin immunoprecipitated): little effect | IL6 secretion (BMDC [1]; [5]): only partially blocked | IL10 secretion (BMDC [1]; [5]): only partially blocked | TNFα production (BMDC [1]; [5]): partially blocked

O=C(NOCC1CC1)c1ccc(F)c(F)c1Nc1ccc(I)cc1Cl [PD184352]
production of TNFα, IL6 and IL10 (BMDC [1]): blocked
